# According to article PMC6470885 (Molecules, 2019):
# Several values for one entry are separate records, joined by “and”; a condition that tells them apart may be missing. Identical values can stand only once. Non-standard residues stand in square brackets, D forms with d. Residues, ends and D or L forms follow the SMILES beside them. *: point of attachment. Palmitoyl = CCCCCCCCCCCCCCCC(=O)*; PEG4 = NCCOCCOCCOCCOCCC(=O)O
# Key:
# [1] = Serum half-life and pharmacokinetic parameters in mice
# Method: (§1) Evaluation of ex vivo anti-HIV-1 activity of a peptide in a mouse model was performed as described recently. This mouse experiment was conducted under ethical guidelines and approved by the Institutional Laboratory Animal Care and Use Committee at Fudan University (20160927-2). ICR mice used for this study were bred at the Department of Laboratory Animal Science of Fudan University. Briefly, 5 mg/kg of a peptide were intraperitoneally (i.p.) injected into four female ICR mice (8 weeks). […] Anti-HIV-1 activities of the mouse serum samples were determined in the same way as described above. The highest dilution-fold of the serum causing 50% inhibition of HIV-1IIIB infection (IC50) was calculated.
# MT-2 cells = experiment: Cytotoxicity, CCK8 assay, MT-2 cells
# Method: (§2) A peptide at graded concentration was incubated with 2 × 10^5/mL cells at 37 °C for 3 days before adding 10 μL of CCK8 reagent (Sigma-Aldrich). After another round of incubation at 37 °C for 2 h, A450 was measured with the Multi-Detection Microplate Reader. Cell viability was calculated by […].
# HIV-1IIIB (X4 virus) [2] = experiment: Virus wash and nonwash assay; assay type: cell-based; settings: HIV-1IIIB incubated with peptide 4 °C 30 min, unbound peptide washed away, then MT-2 cells
# Method: To determine whether a peptide binds with the viral particle in order to execute its anti-HIV-1 activity, virus wash and nonwash assays were performed as previously described. Briefly, HIV-1IIIB (50 × TCID50) were incubated with a peptide at 4 °C for 30 min, followed by washes of the pretreated viral particles to remove the unbound peptide (control: without washes) before being added to 2 × 10^4 MT-2 cells. After culture at 37 °C overnight, the supernatant was replaced by fresh RPMI-1640 medium containing 10% FBS. The inhibitory activity of the virus-bound peptide in the wash group and free peptide in the nonwash group was determined as described above.
# HIV-1IIIB (X4 virus) [3] = assay type: cell-based; settings: ratio of IC50s
# Method: (§3) Inhibitory activities of peptides on infection by HIV-1 X4 strain IIIB, R5 strain Bal, and T20-, T2635-, HP23-resistant strains were determined as previously described [42]. For each well of a 96-well plate, 50 μL of a peptide were mixed with 50 μL of 100 × TCID50 (50% tissue culture infective doses) of HIV-1 live virus and incubated at 37 °C for 30 min. Afterwards, 2 × 10^4 MT-2 (for X4 virus) or CEMx174 5.25 M7 cells (for R5 virus) were added. After overnight culture, the supernatant was replaced with fresh RPMI-1640 medium containing 10% fetal bovine serum (FBS). After further culture at 37 °C for three days, 50 μL of the culture medium were collected and mixed with equal volume of 5% (v/v) Triton X-100. The p24 antigen, which represents HIV-1 quantity, was detected by ELISA. Briefly, the collected mixtures were added to a plate coated with anti-HIV Immune Globulin (HIVIG) from the NIH AIDS Reagent Program. Anti-p24 mAb 183, rabbit anti-mouse IgG-HRP (Dako, Glostrup, Denmark) and substrate 3,3,5,5-TMB (Sigma-Aldrich, New York, NY) were added and washed away sequentially. The absorbance at 450 nm (A450) was determined by a Multi-Detection Microplate Reader (Ultra 384, Tecan, Tokyo, Japan). IC50s were calculated using Calcusyn software (Biosoft, Ferguson, MO), and the lines of best fit were drawn using GraphPad Prism 8 software (La Jolla, CA).
# [4] = system: HIV-1 T2635-resistant strains; settings: ratio of IC50s
# Method: (§4) For each well of a 96-well plate, 50 μL of a peptide were mixed with 50 μL of 100 × TCID50 (50% tissue culture infective doses) of HIV-1 live virus and incubated at 37 °C for 30 min. Afterwards, 2 × 10^4 MT-2 (for X4 virus) or CEMx174 5.25 M7 cells (for R5 virus) were added. After overnight culture, the supernatant was replaced with fresh RPMI-1640 medium containing 10% fetal bovine serum (FBS). After further culture at 37 °C for three days, 50 μL of the culture medium were collected and mixed with equal volume of 5% (v/v) Triton X-100. The p24 antigen, which represents HIV-1 quantity, was detected by ELISA. Briefly, the collected mixtures were added to a plate coated with anti-HIV Immune Globulin (HIVIG) from the NIH AIDS Reagent Program. Anti-p24 mAb 183, rabbit anti-mouse IgG-HRP (Dako, Glostrup, Denmark) and substrate 3,3,5,5-TMB (Sigma-Aldrich, New York, NY) were added and washed away sequentially. The absorbance at 450 nm (A450) was determined by a Multi-Detection Microplate Reader (Ultra 384, Tecan, Tokyo, Japan). IC50s were calculated using Calcusyn software (Biosoft, Ferguson, MO), and the lines of best fit were drawn using GraphPad Prism 8 software (La Jolla, CA).
# [5] = system: HIV-1 mutants resistant to T20, T2635, or HP23; assay type: cell-based; settings: ratio of IC50s
# Method: as §4
# [6] = system: cell-cell fusion between H9/IIIB cells and MT-2 cells; experiment: HIV-1-mediated cell-cell fusion (dye transfer assay); assay type: cell-based; settings: ratio of IC50s
# Method: A dye transfer assay was performed to detect HIV-1 Env-mediated cell-cell fusion as described previously. Briefly, for each well of a 96-well plate, 2 × 10^3 H9/IIIB cells labeled with the fluorescent reagent Calcein AM (Molecular Probes, Inc., Eugene, Oregon) were incubated with a CHR-peptide at 37 °C for 30 min. Afterwards, 10^4 MT-2 cells were added and incubated at 37 °C for 2 h. The fused and unfused Calcein-labeled H9/IIIB cells were counted under an inverted fluorescence microscope (Zeiss, Oberkochen, Germany). The IC50 values were calculated by using the Calcusyn computer program (Biosoft, Ferguson, MO).
# HIV-1Bal (R5 virus) = assay type: cell-based; settings: ratio of IC50s
# Method: as §3
# [7] = system: HIV-1 HP23-resistant strains; settings: ratio of IC50s
# Method: as §4
# [8] = system: HIV-1 T20-resistant strains; settings: ratio of IC50s
# Method: as §3
# M7 cells = experiment: Cytotoxicity, CCK8 assay, M7 cells
# Method: as §2
# HIV-1IIIB = experiment: Ex vivo anti-HIV-1 activity of sera of peptide-treated mice; assay type: in vivo; settings: ICR mice, 5 mg/kg i.p.; serum tested against HIV-1IIIB
# Method: as §1
# [9] = Mice (i.p., n = 3), 5 mg/kg, concentration estimated from serum anti-HIV-1 activity, MODFIT
# [10] = concentrations as high as 8 μM, 3 days, 37 °C, CCK8
structure (smiles),measurement,setting,value
CCCCCCCCCCCCCCCC(=O)NCCCC[C@H](NC(=O)CCOCCOCCOCCOCCNC(=O)CNC(=O)[C@H](CO)NC(=O)CNC(=O)[C@H](CC(C)C)NC(=O)[C@H](CC(=O)O)NC(=O)[C@@H](NC(=O)[C@H](CCC(N)=O)NC(=O)[C@H](CCC(N)=O)NC(=O)[C@H](CC(N)=O)NC(=O)[C@H](CCC(N)=O)NC(=O)[C@H](CO)NC(=O)[C@H](CCCCN)NC(=O)[C@H](CCCCN)NC(=O)[C@H](CC(C)C)NC(=O)[C@@H](NC(=O)[C@H](CCC(=O)O)NC(=O)[C@H](CCC(=O)O)NC(=O)[C@@H](NC(=O)[C@H](CCCCN)NC(=O)[C@H](CCCCN)NC(=O)[C@@H](NC(=O)[C@H](Cc1ccc(O)cc1)NC(=O)[C@H](CCC(=O)O)NC(=O)[C@H](CCC(=O)O)NC(=O)[C@@H](NC(=O)[C@H](CCCCN)NC(=O)[C@H](CCCCN)NC(=O)[C@H](CCC(=O)O)NC(=O)[C@H](Cc1c[nH]c2ccccc12)NC(=O)[C@H](CCC(=O)O)NC(=O)[C@H](CCC(=O)O)NC(=O)[C@H](Cc1c[nH]c2ccccc12)NC(=O)[C@@H](NC(=O)[C@H](CCSC)NC(=O)[C@@H](N)CCC(=O)O)[C@@H](C)O)[C@@H](C)CC)[C@@H](C)CC)[C@@H](C)CC)[C@@H](C)CC)[C@@H](C)CC)C(=O)O [YIK-C16] (H-EMTWEEWEKKIEEYIKKIEEILKKSQNQQIDLGSG[PEG4]K(Palmitoyl)-OH; N-terminus and C-terminus assumed),AUC0-15h,[1]; [9],14900 ± 3800 ng·h/mL
same,AUCINF_obs,[1]; [9],15000 ± 3700 ng·h/mL
same,Cl_F_obs/Cl_obs,[1]; [9],5.773 ± 1.27 mL/min/kg
same,Cmax,[1]; [9],2200 ± 100 ng/mL
same,MRTlast,[1]; [9],9.5 ± 5.1 h
same,Tmax,[1]; [9],4.0 ± 1.7 h
same,Vz_F_obs/Vz_obs,[1]; [9],2.7388 ± 0.7407 L/kg
same,t½,[1]; [9],5.9 ± 3.2 h
same,fold longer serum half-life than HP23-E6-IDL,"[1]; mice, i.p.",~5.9 fold
same,non-cytotoxic concentration (8 μM) relative to IC50 for inhibiting HIV-1IIIB infection,MT-2 cells; 8 μM versus IC50 against HIV-1IIIB,about 105 fold
same,in vitro cytotoxicity to MT-2 cells,MT-2 cells; [10],none of these peptides exhibited in vitro cytotoxicity
same,"inhibition of HIV-1IIIB infection, virus preincubated with peptide, washed",HIV-1IIIB (X4 virus) [2],could inhibit HIV-1IIIB infection when the unbound peptide was washed away
same,fold more potent than YIK against HIV-1IIIB infection,HIV-1IIIB (X4 virus) [3],3.6 fold
same,fold more potent than HP23-E6-IDL for inhibiting infection by HIV-1 T2635-resistant strains,[4],about 12 fold
same,"fold more effective than HP23-E6-IDL against infection by HIV-1 mutants resistant to T20, T2635 and HP23",[5],about 16 fold
same,potency relative to YIK and HP23-E6-IDL in inhibiting HIV-1-mediated cell-cell fusion,[6],about two-fold more potent
same,fold more effective than HP23-E6-IDL against HIV-1Bal infection,HIV-1Bal (R5 virus),13.3 fold and ~13 fold
same,fold more effective than YIK against HIV-1Bal infection,HIV-1Bal (R5 virus),10.5 fold
same,fold more potent than HP23-E6-IDL for inhibiting infection by HIV-1 HP23-resistant strains,[7],~26 fold
same,fold more potent than HP23-E6-IDL for inhibiting infection by HIV-1 T20-resistant strains,[8],about 12 fold
same,non-cytotoxic concentration (8 μM) relative to IC50 for inhibiting HIV-1Bal infection,M7 cells; 8 μM versus IC50 against HIV-1Bal,~131 fold
same,in vitro cytotoxicity to M7 cells,M7 cells; [10],none of these peptides exhibited in vitro cytotoxicity
same,maximum inhibitory activity of serum (fold of IC50; highest dilution-fold of serum causing 50% inhibition),HIV-1IIIB,about 4500 fold
same,serum inhibitory activity maintained for 15 h post-injection (fold of IC50),HIV-1IIIB,> 275 fold
same,time of maximum serum inhibitory activity post-injection,HIV-1IIIB,about 3 h
